Experimental data published in patent US20220356163A1, “SMALL MOLECULE INHIBITORS OF Id PROTEINS” (MEMORIAL SLOAN KETTERING CANCER CENTER, priority 2019, published 2022).

How the values were obtained:
[1] = 14-day toxicity study, i.p.; assay type: in vivo; details: 60 mg/kg bid i.p., 14 days
Procedure: Toxicity analyses. To assess for toxicity, female athymic nude mice (Envigo), age 6-8 weeks, were dosed i.p. with either a control vehicle (70% DMSO in water) or AGX51 at 60 mg/kg twice daily for 14 consecutive days. Mice were sacrificed 24 hours after the last test administration. Gross and complete necropsy, along with clinical pathology analysis was conducted on all mice. Clinical Chemistry parameters measured were: BUN, Creatine, ALP, ALT, AST, GGT, Bilirubin, Total Protein, Albumin, Globulin, Phosphorus, Glucose, Cholesterol, Phosphorus, Calcium, Sodium, Potassium, Chloride. Hematology parameters measured were: white blood cells (lymphocytes, Monocytes, Eosinophils, Basophils, Neutrophils), red blood cells, Hemoglobin, Hematocrit, MCV, MCH, MCHC, RDW, Platelets. Organs/Tissues analyzed were: Lung, heart, thymus, kidneys, liver, spleen, gall bladder, pancreas, duodenum, jejunum, ileum, cecum, colon, bone marrow, femur, tibia, sternum, brain, eyes, ears, nasal and oral cavities, teeth, mesenteric and tracheal lymph nodes.

[2] = test system: PDX RomeP_PHCH_X_0008a; experiment: Murine PDX model of cholangiocarcinoma, Round 1 (AGX-A in DMSO); assay type: in vivo, mouse
Procedure: A first round of the study (“Round 1”) was planned as indicated in the Round 1 Study Protocol blow, utilizing gemcitabine in saline and AGX-A in DMSO for administration. • Mice: NSG females, 6-8 weeks old • […], serially transplanted sc with matrigel • Treatment Groups (at least 6 animals/group): treatments started when tumors reached 100 mm^3 (“Day 0” for each animal) • Group 1. Saline, i.p. once a week (“QW”) for 3-4 weeks (“×3-4 weeks”) • Group 2. Gemcitabine 25 mg/kg i.p. QW×3-4 weeks • Group 3. AGX-A 10 mg/kg i.p. once a day for 5 consecutive days (“QD×5”)×3-4 weeks • Group 4. Gemcitabine 25 mg/kg […] 10 mg/kg i.p. QD×5×3-4 weeks Tumor volumes, weights, and clinical signs were monitored a minimum of twice per week for each animal in each group throughout the study. In the Round 1 study, it was observed that animal weight in Groups 1 and 2 was essentially unchanged for the duration of the study. […] Because of this, treatment in Groups 3 and 4 was halted after Day 9 while tumor volumes, weights, and clinical signs continued to be monitored a minimum of twice per week for each subject in each group. Subsequently, the animals in Groups 3 and 4 stopped loosing weight and instead started regaining weight. Meanwhile, treatment in Groups 1 and 2 continued as planned. Due to the alterations in the planned study, Round 1 was concluded at Day 20.

## CCC(=O)N(CCC(c1ccc2c(c1)OCO2)c1ccccc1OC)Cc1ccccc1 (racemic) [AGX51, N-(3-(benzo[d][1,3]dioxol-5-yl)-3-(2-methoxyphenyl)propyl)-N-benzylpropionamide]
[1]
  clinical chemistry parameters and hematology: within normal limits
  gross necropsy and histopathological evaluation of all major organs: No abnormal findings
  weight loss: no significant weight loss

## COc1ccccc1C(CCNCc1ccccc1)c1ccc(OC(C)C)cc1 (centres unmarked) [AGX-A, N-benzyl-3-(4-isopropoxyphenyl)-3-(2-methoxyphenyl)propan-1-anine]
[2]; AGX-A 10 mg/kg i.p. QD×5 in DMSO, treatment discontinued at 9 days, vs gemcitabine 25 mg/kg QW
  tumor volume: performs better than the SOC drug gemcitabine
[2]; AGX-A in DMSO, Groups 3 and 4
  animal weight: weight loss was observed
